Measurements: patent publication US8815565B2, “Method for culturing mycoplasma contamination-free cells and method for removing mycoplasma contamination of cells” (Cellsafe Co., Ltd., priority 2010, dated 2014)
*1 amine or outer side, *2 acyl side, *3 side chain or, on linkers, in order; H or OH if unused. Where a SMILES comes first, the peptide text is derived from it. Bridges are numbered along the chain shown (N, C = ends). [ ]: non-standard residue; d: D form. X1 = CC(C)CCCCCCCCC[C@H](CC(=O)[*:1])O[*:2]

How the values were obtained:
[1] = system: Mycoplasma hyorhinis (ATCC17981s); test: Inhibition of Mycoplasma hyorhinis cultured in PPLO medium, INT colour change; assay type: cell-based; conditions: final concentration at which INT colour change did not occur, 24 hours + 4 hours at 37° C.; for IC50: Mycoplasma, read-out: IC50
Experimental: In order to evaluate the effects of the extract and amphidinol derivatives prepared in Example 1 on mycoplasma, Mycoplasma hyorhinis (ATCC17981s) was cultured in a PPLO medium (pleuropneumonia-like organism basal medium, Difco Laboratories, Detroit, USA) supplemented with a fetal calf serum and a yeast extract, according to the method disclosed by Hayflick (Hayflick, 1965, Tex. Rep. Bio. Med. 23, 285-303). That is, 100 μl of the medium was placed on each well of a 96-well plate, and a sample (that is, the extract and amphidinol derivatives prepared in Example 1) was added to each well, such that each sample was diluted from 2 times (i.e., 2× diluted) to 12 times (i.e., 12× diluted), the starting concentration being 1 mg/ml. Mycoplasma was cultured in a PPLO medium (pleuropneumonia-like organism basal medium, Difco Laboratories, Detroit, USA) supplemented with a fetal calf serum and a yeast extract, at a temperature of 37° C. for 48 hours. The resulting culture medium was diluted with the PPLO medium at a ratio of 1:10. 100 μl of the diluted culture medium was added to each well of the 96-well plate, so that the total amount of each well was 200 μl. After culturing at a temperature of 37° C. for 24 hours, 40 μl of 0.2 mg/ml INT (p-iodonitrotetrazolium) was added thereto and culturing was further performed for 4 hours. If the medium turns pink following the culturing, the color change means that metabolism of mycoplasma actively occurs. Also, if mycoplasma is suppressed by the sample, the medium turned pink less.

[2] = system: HepG2 cell line contaminated with mycoplasma; test: Co-treatment with amphidinol 3 (AM3) and cyclic lipopeptide/antibiotic, PCR with mycoplasma diagnosis kit; assay type: cell-based
Experimental: The cell lines NIH3T3, HepG2, and Raw 264.7, which were confirmed to be contaminated with mycoplasma, were each inoculated at a concentration of 1×10^6 cells on a T-75 culture flask (NUNC, Cat. No. 156367). DMEM (GIBCO BRL, Cat. No. 12800-058) containing 10% or less of serum (GIBCO BRL, Cat. […] After culturing for 3 days, the obtained cells were treated with Trypsin-EDTA to obtain a cell solution. The resulting cells (1×10^6 cells) which was treated with amphidinol 3 (AM3) were inoculated. DMEM (GIBCO BRL, Cat. No. 12800-058) containing 10% or less of serum (GIBCO BRL, Cat. […] After culturing for 3 days, the cells were harvested. PCR was performed thereon with a mycoplasma diagnosis kit (Promokine, Germany; Cellsafe Co., Ltd., Korea) according to the enclosed protocol. The resulting PCR products were electrophoresed on a 1% agarose gel to measure the mycoplasma contamination.

Row | Compound | IC50 [1] [µg/mL] | minimum inhibitory concentration (no INT colour change) [1] | also measured
1 | C=C/C=C/CC/C=C/C=C/C=C/CC/C=C/C(O)C(O)C1OC(C(O)C(O)C(=C)CCC(O)C2CC(O)C(O)C(C(O)C(O)/C=C(\C)CCC(O)CC(O)C(O)C(C)CC(O)C(O)C(C)CCC(O)CCCC(O)CCCC(O)CCCC(O)/C=C/CC(CO)OS(=O)(=O)[O-])O2)CC(O)C1O.[Na+] (stereo not drawn) [AM1, amphidinol 1] | 1 to 20 | – | –
2 | C=CCC/C=C/C=C/C=C/CC/C=C/C(O)C(O)C1OC(C(O)C(O)C(=C)CCC(O)C2CC(O)C(O)C(C(O)C(O)/C=C(\C)CCC(O)CC(O)C(O)C(C)CC(O)C(O)CCCC(O)CCCC(O)CCCC(O)/C=C/CC(O)/C=C/CC(O)CO)O2)CC(O)C1O (stereo not drawn) [AM6, amphidinol 6] | – | +++ (+++: 1~20 μg/ml) | –
3 | C=C/C=C/CC/C=C/C=C/C=C/CC/C=C/C(O)C(O)C1OC(C(O)C(O)C(=C)CCC(O)C2CC(O)C(O)C(C(O)C(O)/C=C(\C)CCC(O)CC(O)C(O)C(C)C(O)CCCC(O)CCCC(O)CCCC(O)/C=C/CC(O)/C=C/CC(O)CO)O2)CC(O)C1O (stereo not drawn) [AM9, amphidinol 9] | 1 to 20 | – | –
4 | C=CCC/C=C/C=C/C=C/CC/C=C/C(O)C(O)C1OC(C(O)C(O)C(=C)CCC(O)C2CC(O)C(O)C(C(O)C(O)/C=C(\C)CCC(O)CC(O)C(O)C(C)CC(O)C(O)CCCC(O)CCCC(O)/C=C/CC(O)/C=C/CC(O)CO)O2)CC(O)C1O (stereo not drawn) [AM10] | 10 to 100 | – | –
5 | CC(C)CCCCCCCCC[C@@H]1CC(=O)N[C@@H](CCC(=O)O)C(=O)N[C@@H](CC(C)C)C(=O)N[C@H](CC(C)C)C(=O)N[C@@H](C(C)C)C(=O)N[C@@H](CC(=O)O)C(=O)N[C@H](CC(C)C)C(=O)N[C@@H](CC(C)C)C(=O)O1 [surfactin] (EL[dL]VD[dL]L; linker N-C via X1) | – | – | mycoplasma contamination ([2]; used alone, surfactin 10 or 20 μM, ciprofloxacin 1 or 5 μg/ml, rifampicin 0.5 or 1 μg/ml): mycoplasma contamination remained; mycoplasma contamination ([2]; used together with amphidinol 3 (AM3) 5 and 10 μg/ml): completely removed
6 | amphidinol 2 [AM2] | – | +++ (+++: 1~20 μg/ml) | –
7 | amphidinol 5 [AM5] | – | +++ (+++: 1~20 μg/ml) | –
8 | amphidinol 7 [AM7] | – | +++ (+++: 1~20 μg/ml) | –
